From PubChem BioAssay (NCI)
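96-well plates; 48 h exposure; 5 concentrations. Endpoints by linear interpolation between flanking doses. Not reached: highest tested concentration assigned. Abbreviation: GI50, concentration required for 50% inhibition of growth. Definition used: TGI = concentration required for complete inhibition of growth.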

Assays:
Assay in all cases: growth of human tumour cells (NCI), 48 h
HOP-62 NSCLC = system: HOP-62 NSCLC
NCI/ADR-RES ovarian = system: NCI/ADR-RES ovarian
HL-60(TB) leukemia = system: HL-60(TB) leukemia
UACC-62 melanoma = system: UACC-62 melanoma
SF-295 CNS = system: SF-295 CNS
SK-MEL-2 melanoma = system: SK-MEL-2 melanoma
RXF 393 renal = system: RXF 393 renal
HCT-116 colon = system: HCT-116 colon
LOX IMVI melanoma = system: LOX IMVI melanoma
SW-620 colon = system: SW-620 colon

| SMILES | GI50 (HOP-62 NSCLC) [µM] | TGI (HOP-62 NSCLC) [µM] | GI50 (NCI/ADR-RES ovarian) [µM] | TGI (NCI/ADR-RES ovarian) [µM] | GI50 (HL-60(TB) leukemia) [µM] | TGI (HL-60(TB) leukemia) [µM] | GI50 (UACC-62 melanoma) [µM] | TGI (UACC-62 melanoma) [µM] | GI50 (SF-295 CNS) [µM] | TGI (SF-295 CNS) [µM] | GI50 (SK-MEL-2 melanoma) [µM] | TGI (SK-MEL-2 melanoma) [µM] | GI50 (RXF 393 renal) [µM] | TGI (RXF 393 renal) [µM] | GI50 (HCT-116 colon) [µM] | TGI (HCT-116 colon) [µM] | GI50 (LOX IMVI melanoma) [µM] | TGI (LOX IMVI melanoma) [µM] | GI50 (SW-620 colon) [µM] | TGI (SW-620 colon) [µM] |
| --- | --- | --- | --- | --- | --- | --- | --- | --- | --- | --- | --- | --- | --- | --- | --- | --- | --- | --- | --- | --- |
| COc1ccc(C2CC(=O)Nc3c2c(C)nn3-c2nc3ccccc3[nH]2)cc1OC (stereo not given) | 4.32 | 24.4 | 12 | > 100 | 3.29 | 12.6 | 3.15 | 12.8 | 1.77 | 6.91 | 4.85 | 21.9 | 2.19 | 5.69 | 3.31 | 14.9 | 4.51 | 19.1 | 4.86 | 49.6 |
| O=C1NC(=O)/C(=C/c2ccc3nccc(-c4ccncc4)c3c2)S1 | 0.359 | 4.26 | 0.885 | > 10 | 0.325 | > 6.77 | 0.187 | 1.3 | 0.356 | 2.13 | 0.438 | 2.25 | 0.251 | 1.3 | 0.466 | > 5.61 | 0.247 | 2.73 | 0.517 | > 10 |
| COc1ccc(CC2OC3(CCCCC3)CC3CCCCN32)cc1 (stereo not given) | – | > 100 | – | > 100 | – | > 100 | – | > 100 | – | > 100 | – | > 100 | – | > 100 | – | > 100 | – | > 100 | – | > 100 |
| Oc1ccc(Cl)cc1N=Nc1c(O)ccc2ccccc12 | – | > 100 | – | > 100 | – | > 100 | – | > 100 | – | > 100 | – | > 100 | – | > 100 | – | > 100 | – | > 100 | – | > 100 |
| CCN1C(=O)N(CC)C2C1NN=c1s/c(=C\c3ccc(Br)cc3)c(=O)n12 (stereo not given) | 0.305 | > 100 | 0.0626 | > 100 | 0.107 | 1.43 | 0.0557 | > 100 | 0.0738 | > 100 | 4.91 | > 100 | 0.147 | > 100 | 0.107 | > 100 | 0.185 | > 100 | 0.0762 | > 100 |
| Nc1cc2c3ccccc3ccc2c2ccccc12 | 30.6 | > 100 | > 93.7 | > 100 | > 68.6 | > 100 | > 100 | > 100 | > 100 | > 100 | > 100 | > 100 | > 100 | > 100 | 13.4 | > 100 | 9.13 | > 100 | > 100 | > 100 |
| NS(=O)(=O)c1ccc(NC(=O)Nc2cccc3ccccc23)cc1 | – | > 100 | – | > 100 | – | > 100 | – | 69.4 | – | > 100 | – | > 100 | – | > 100 | – | > 100 | – | > 100 | – | > 100 |
